Data set [1] can be described thus: [^11C]-2 PET imaging in rhesus monkey. It is filed as in vivo. Conditions: IV, averaged over 30-90 minutes post injection. The procedure: A fasted rhesus monkey (7-11 kg) is anesthetized with ketamine I.M. (15 mpk) and the monkey is placed in the PET camera bed. An I.V, catheter is inserted into the right saphenous vein. For arterial sampling, the right femoral area is aseptically prepared and an arterial catheter is placed and fixed with sutures.
Subsequent anesthesia is maintained with Propofol. Induction dose is 5 mg/kg I.V., followed by an infusion at 0.4-0.6 mg/kg/min for the duration of the scanning procedure. The animal is intubated and positioned inside the camera gantry supine, head first. Animal is maintained on ventilated medical grade air:oxygen gas mixture at approximately 23 respirations per minute for the duration of the study. Ventilation I:E ratio, volume and rate of respiration is adjusted to maintain CO2 levels about 40 mmHg and SpO2 levels 95 to 100%. A temperature probe, pulse oximeter, non-invasive blood pressure cuff, and end tidal CO2 monitor are connected. […]
Whole blood samples are collected via arterial catheter into Heparin tubes for determination of radioactivity in whole blood and plasma. Samples are centrifuged and 20 μl whole blood and plasma are counted 20, 40, 80, 100, 120, and 150 seconds post PET ligand injection. Samples of blood (0.8 ml) are taken for metabolite correction and determination of radioactivity in plasma and whole blood at 3, 5, 15, 30, 60, and 90 minutes. […]

Data set [2] has as its target T1, triton-extracted alpha-synuclein from PD Tissue (Homo sapiens, UniProt P37840).
T1 construct: tissue Analytic Biological Services Inc; host or cells: human PD temporal cortex grey matter, Triton X-100 insoluble pellet
The data set is described as follows: Alpha-synuclein tissue homogenate binding assay (Assay 1), displacement of [^3H]-1000. Conditions: for Selectivity ratio (Assay 2/Assay 1): Aβ Tissue Ki / α-synuclein Tissue Ki; for Ki: read-out: α-synuclein Tissue Ki (Assay 1).

Data set [3] concerns the target aggregated beta amyloid in AD tissue (Homo sapiens, UniProt P05067). Kind of data set: Competitive radioligand binding to pathological aggregated beta amyloid in AD tissue (Assay 2), displacement of [^3H]-105. Particulars: Aβ-rich AD frontal cortex homogenate, [^3H]-105, Kd 11.0 nM.
Experimental: Frozen human brain samples of Alzheimer's disease (AD) were purchased from Analytic Biological Services Inc. The samples were post-mortem tissue from donors with clinical diagnosis of AD and much of the white matter was dissected out of the frontal cortex in order to enrich the tissue preparations for gray matter. Brain homogenates of gray matter enriched frontal cortex were prepared by homogenizing the tissue in ice cold Phosphate Buffered Saline (PBS), pH 7.4 at 80 mg wet weight tissue per 1 ml for 45 seconds at 4° C., on setting 16 of Polytron. The homogenate was further diluted with ice cold PBS to 30 mg wet weight tissue per 1 ml and homogenized for an additional minute as described above. Homogenates were aliquoted in 5 ml/tube and stored at −70° C. until use.
Radioligand [^3H]-105, prepared as described in ACS Med. Chem. Lett., Vol. 2, pages 498-502, was used in this assay.
For Assay 2 unlabeled test compounds were dissolved in DMSO at 10 mM. Dilutions of tests compounds to various concentrations were made in 100% DMSO at 1000× final assay concentration and 0.225 μl aliquots were dispensed into assay plates. Brain homogenates were diluted to 0.5 mg/ml from original 30 mg/ml volume in Assay Buffer, and 200 μl were added to the assay plate for a final concentration of 100 ug wet weight/assay well. [^3H]-105 was prepared at 10× final concentration in Assay Buffer plus 20% DMSO and 25 μl was added to the assay plate for final assay concentration of 3.0 nM. The plates were incubated at 37° C. for 90 minutes. Unbound and bound ligand were separated by filtration of bound onto GF/B filter plates (pre-treated for 30 min with 0.1% PEI) using a Packard Filtermate and washing away unbound with 2.5 mil ice cold 5 mM Tris at pH 7.4. Filter plates were dried for 1 hr at 57° C. and 50 μl Microscint was added to each well of the plate. The plates were counted for ^3H cpm for 1 min per well using PerkinElmer TopCount.
The mark [4] stands for this setting: insoluble fraction of PD brain homogenate, [^3H]-1000 3.0 nM, Kd 0.90 nM.

Like-named read-outs stand apart in the source and are kept apart here. A value given as a limit tells only on which side of the number the result lay.

From patent publication US20260224758A1, “ALPHA-SYNUCLEIN BINDERS AND METHODS OF USE” (Merck Sharp & Dohme LLC, priority 2023, published 2026) come the findings set out here.

Chain of aggregated beta amyloid in AD tissue (P05067 672-711 limits assumed): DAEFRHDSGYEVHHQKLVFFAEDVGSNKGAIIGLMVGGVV

Turning to `[11CH3]OC[C@H]1CN(c2ncc(/C=C/c3ccc(-n4ccnc4)nc3)cn2)CCN1c1ncccn1` [[^11C]-2], the “distribution in monkey brain (PET image)” value in data set [1] was “suitable distribution”.

For `OC[C@H]1CN(c2ccc(F)nc2)CCN1c1ncc(/C=C/c2ccc(-n3ccnc3)nc2)cn1` [Example 33, (R,E)-(1-(5-(2-(6-(1H-imidazol-1-yl)pyridin-3-yl)vinyl)pyrimidin-2-yl)-4-(6-fluoropyridin-3-yl)piperazin-2-yl)methanol], the “Selectivity ratio (Assay 2/Assay 1)” value in data set [2] came out at 6667. For the same compound, the Ki (usually the equilibrium dissociation constant of an inhibitor or competing ligand from its target) in data set [2] is 1.8 nM; in data set [3], at least 12000 nM.

On to `COC[C@H]1CN(c2ncc(/C=C/c3ccc(-n4ccnc4)nc3)cn2)CCN1c1ncc(F)cn1` [Example 27, (R,E)-5-(2-(6-(1H-imidazol-1-yl)pyridin-3-yl)vinyl)-2-(4-(5-fluoropyrimidin-2-yl)-3-(methoxymethyl)piperazin-1-yl)pyrimidine], for which, in data set [2], the “Selectivity ratio (Assay 2/Assay 1)” value is 44. In addition, the Ki in data set [2] (setting [4]) turned out to be 1.8 nM; in data set [3], 80 nM.

Consider `COC[C@H]1CN(c2ccccn2)CCN1c1ncc(/C=C/c2ccc(-n3ccnc3)nc2)cn1` [Example 18, (R,E)-5-(2-(6-(1H-imidazol-1-yl)pyridin-3-yl)vinyl)-2-(2-(methoxymethyl)-4-(pyridin-2-yl)piperazin-1-yl)pyrimidine], for which the “Selectivity ratio (Assay 2/Assay 1)” value in data set [2] is recorded as 24000. Further, the Ki is 0.5 nM in data set [2] (setting [4]) and at least 12000 nM in data set [3].

In the case of `COC[C@H]1CN(c2ncc(C#Cc3cnc(-c4cnn(CCF)c4)nc3)cn2)CCN1c1ncncn1` [Example 46, (R)-2-(4-(5-((2-(1-(2-fluoroethyl)-1H-pyrazol-4-yl)pyrimidin-5-yl)ethynyl)pyrimidin-2-yl)-2-(methoxymethyl)piperazin-1-yl)-1,3,5-triazine], the “Selectivity ratio (Assay 2/Assay 1)” value in data set [2] was 929. In addition, the results for the inhibitory constant (Ki) in data set [2] (setting [4]) and in data set [3] were 1.29 nM and at least 1200 nM, respectively.

In the case of `COC[C@H]1CN(c2ncc(C#Cc3ccc(-n4cnnc4)nc3)cn2)CCN1c1cc(F)ncn1` [Example 45, (R)-5-((6-(4H-1,2,4-triazol-4-yl)pyridin-3-yl)ethynyl)-2-(4-(6-fluoropyrimidin-4-yl)-3-(methoxymethyl)piperazin-1-yl)pyrimidine], in data set [2], the “Selectivity ratio (Assay 2/Assay 1)” value came out at 589. In addition, the Ki in data set [2] (setting [4]) was 2.04 nM; in data set [3], at least 1200 nM.

In the case of `OC(CF)COC[C@H]1CN(c2ncc(C#Cc3ccc(-c4cnco4)nc3)cn2)CCN1c1ncncn1` (stereo partly drawn) [Example 67, 1-fluoro-3-(((R)-4-(5-((6-(oxazol-5-yl)pyridin-3-yl)ethynyl)pyrimidin-2-yl)-1-(1,3,5-triazin-2-yl)piperazin-2-yl)methoxy)propan-2-ol], the “Selectivity ratio (Assay 2/Assay 1)” value in data set [2] was 798. For the same compound, the inhibition constant (Ki) is 1.5 nM in data set [2] (setting [4]) and at least 1200 nM in data set [3].

`COC[C@H]1CN(c2ccnc(F)c2)CCN1c1ncc(/C=C/c2ccc(-n3ccnc3)nc2)cn1` [Example 29, (R,E)-5-(2-(6-(1H-imidazol-1-yl)pyridin-3-yl)vinyl)-2-(4-(2-fluoropyridin-4-yl)-2-(methoxymethyl)piperazin-1-yl)pyrimidine]: in data set [2], the “Selectivity ratio (Assay 2/Assay 1)” value is 180. In addition, the inhibition constant (Ki) in data set [2] (setting [4]) amounted to 1 nM; in data set [3] it was 180 nM.

Take `Cn1cc(-c2ncc(C#Cc3cnc(N4CCN(c5ncccn5)[C@@H](COCCOCCOCCF)C4)nc3)cn2)cn1` [Example 82, (R)-2-(3-((2-(2-(2-fluoroethoxy)ethoxy)ethoxy)methyl)-4-(pyrimidin-2-yl)piperazin-1-yl)-5-((2-(1-methyl-1H-pyrazol-4-yl)pyrimidin-5-yl)ethynyl)pyrimidine]: the “Selectivity ratio (Assay 2/Assay 1)” value in data set [2] came to 840. Also, the results for the inhibition constant Ki in data set [2] (setting [4]) and in data set [3] were 1.43 nM and at least 1200 nM, respectively.

`COCCOC[C@H]1CN(c2ccccn2)CCN1c1ncc(/C=C/c2ccc(-n3ccnc3)nc2)cn1` [Example 6, (R,E)-5-(2-(6-(1H-imidazol-1-yl)pyridin-3-yl)vinyl)-2-(2-((2-methoxyethoxy)methyl)-4-(pyridin-2-yl)piperazin-1-yl)pyrimidine]: the “Selectivity ratio (Assay 2/Assay 1)” value in data set [2] was 100. The figures for the Ki in data set [2] (setting [4]) and in data set [3] were 1.8 nM and 180 nM, respectively.

For the compound `FCCOC[C@@H]1CN(c2ncc(C#Cc3ccc(-c4cnco4)nc3)cn2)CCN1c1ncncn1` [Example 62, (S)-5-(5-((2-(3-((2-fluoroethoxy)methyl)-4-(1,3,5-triazin-2-yl)piperazin-1-yl)pyrimidin-5-yl)ethynyl)pyridin-2-yl)oxazole], the “Selectivity ratio (Assay 2/Assay 1)” value in data set [2] amounted to 811. Moreover, the Ki in data set [2] (setting [4]) is 1.48 nM; in data set [3] it was at least 1200 nM.

Turning to `COC[C@H]1CN(c2ncc(C#Cc3ccc(-n4ccnc4)nc3)cn2)CCN1c1ncccn1` [Example 11, (R)-5-((6-(1H-imidazol-1-yl)pyridin-3-yl)ethynyl)-2-(3-(methoxymethyl)-4-(pyrimidin-2-yl)piperazin-1-yl)pyrimidine], the “Selectivity ratio (Assay 2/Assay 1)” value in data set [2] was determined as 10909. For the same compound, the Ki in data set [2] (setting [4]) was 1.1 nM; in data set [3], at least 12000 nM.

As to `COC[C@H]1CN(c2cnc(C#Cc3ccc(-n4ccnc4)nc3)c(F)n2)CCN1c1ncccn1` [Example 57, (R)-2-(4-(5-((6-(1H-imidazol-1-yl)pyridin-3-yl)ethynyl)-6-fluoropyrazin-2-yl)-2-(methoxymethyl)piperazin-1-yl)pyrimidine], in data set [2], the “Selectivity ratio (Assay 2/Assay 1)” value is reported as 7. For the same compound, the Ki came to 4.41 nM in data set [2] (setting [4]) and 32 nM in data set [3].

On to `OC[C@H]1CN(c2ncc(C#Cc3ccc(-n4ccnc4)nc3)cn2)CCN1c1ncccn1` [Example 10, (R)-(4-(5-((6-(1H-imidazol-1-yl)pyridin-3-yl)ethynyl)pyrimidin-2-yl)-1-(pyrimidin-2-yl)piperazin-2-yl)methanol], for which, in data set [2], the “Selectivity ratio (Assay 2/Assay 1)” value turned out to be 2449 and the Ki was determined as 4.9 nM. Further, in data set [3], the Ki was at least 12000 nM.

Consider `Cn1cc(-c2ncc(C#Cc3cnc(N4CCN(c5ncncn5)[C@@H](COCCOCCF)C4)nc3)cn2)cn1` [Example 78, (R)-2-(2-((2-(2-fluoroethoxy)ethoxy)methyl)-4-(5-((2-(1-methyl-1H-pyrazol-4-yl)pyrimidin-5-yl)ethynyl)pyrimidin-2-yl)piperazin-1-yl)-1,3,5-triazine], for which the “Selectivity ratio (Assay 2/Assay 1)” value in data set [2] was 753. In addition, the results for the inhibitory constant (Ki) in data set [2] (setting [4]) and in data set [3] were 1.59 nM and at least 1200 nM, respectively.
